Measurements as given in ChEMBL document CHEMBL5042514, “Picolylamine-functionalized benz[e]indole squaraine dyes: Synthetic approach, characterization and in vitro efficacy as potential anticancer phototherapeutic agents” (Eur J Med Chem, 2022).
The source made the active and inactive calls. The calls are words filed in the database; no cut-off is given here.

Assays:
[1] = Phototoxicity against human NHDF cells assessed as reduction in cell viability preincubated for 24 hrs followed by 7 mins of LED light irradiation by MTT assay; format: toxicity, cell-based
[2] = Dark toxicity against human HeLa cells assessed as reduction in cell viability incubated for 24 hrs by MTT assay; format: cell-based
[3] = Phototoxicity against human PC-3 cells assessed as reduction in cell viability preincubated for 24 hrs followed by 7 mins of LED light irradiation by MTT assay; format: toxicity, cell-based; settings: PC-3, light or radiation study
[4] = Phototoxicity against human Caco-2 cells assessed as reduction in cell viability preincubated for 24 hrs followed by 7 mins of LED light irradiation by MTT assay; format: toxicity, cell-based; settings: Caco-2, light or radiation study
HeLa [5] = assay: Induction of apoptosis in human HeLa cells at 0.24 uM preincubated for 24 hrs followed by 7 mins LED light irradiation and measured after 24 hrs by PI staining based flow cytometry analysis; format: functional; settings: time 2887 min, 48.12 h
[6] = Phototoxicity ratio of IC50 for cytotoxicity against human MCF7 cells assessed as reduction in cell viability in dark to IC50 for phototoxicity against human MCF7 cells upon LED light irradiation; format: toxicity, cell-based
Albumin = Albumin (Homo sapiens, UniProt P02768); assay: Binding affinity to human serum albumin assessed as binding constant by fluorescence based assay
[7] = Genotoxicity in human HeLa cells assessed as genetic damage index at 1 uM measured after 24 hrs in absence of light by alkali comet assay; format: toxicity, cell-based
[8] = Phototoxicity ratio of IC50 for cytotoxicity against human HeLa cells assessed as reduction in cell viability in dark to IC50 for phototoxicity against human HeLa cells upon LED light irradiation; format: toxicity, cell-based
HeLa [9] = assay: Induction of cell cycle arrest in human HeLa cells assessed as accumulation in G2/M phase at 0.24 uM by PI staining based flow cytometry analysis (reference value: 4.79 %); format: functional
HeLa [10] = assay: Induction of morphological change in human HeLa cells assessed as cell shrinkage at 0.25 uM preincubated for 24 hrs followed by 7 mins of LED light irradiation and measured upto 48 hrs by microscopic analysis; format: functional, cell-based; settings: time min <=4327
[11] = Dark toxicity against human MCF7 cells assessed as reduction in cell viability incubated for 24 hrs by MTT assay; format: cell-based
HeLa [12] = assay: Induction of apoptosis in human HeLa cells assessed as increase in DNA cleavage at 1 uM preincubated for 24 hrs followed by 7 mins LED light irradiation and measured after 24 hrs by PI staining based flow cytometry analysis; format: functional; settings: time 2887 min, 48.12 h
[13] = Drug localization in mitochondria of human HeLa cells at 1 uM incubated for 24 hrs by Rhodamine 123 based confocal laser scanning microscopy analysis; format: ADME
[14] = Phototoxicity ratio of IC50 for cytotoxicity against human PC-3 cells assessed as reduction in cell viability in dark to IC50 for phototoxicity against human PC-3 cells upon LED light irradiation; format: toxicity, cell-based
HeLa [15] = assay: Induction of cell cycle arrest in human HeLa cells assessed as accumulation in G2/M phase at 1 uM by PI staining based flow cytometry analysis (reference value: 4.79 %); format: functional
[16] = Dark toxicity against human Caco-2 cells assessed as reduction in cell viability incubated for 24 hrs by MTT assay; format: cell-based
[17] = Selectivity ratio of IC50 for phototoxicity against human NHDF cells upon LED light irradiation to IC50 for phototoxicity against human PC-3 cells upon LED light irradiation; format: toxicity, cell-based; settings: NHDF cells versus PC-3 cells, read-out: Ratio IC50
[18] = Phototoxicity against human MCF7 cells assessed as reduction in cell viability preincubated for 24 hrs followed by 7 mins of LED light irradiation by MTT assay; format: toxicity, cell-based; settings: MCF7, light or radiation study
[19] = Drug localization in lysosome of human HeLa cells at 1 uM incubated for 24 hrs by Green Fluorescent Protein based confocal laser scanning microscopy analysis; format: ADME, subcellular
HeLa [20] = assay: Induction of cell cycle arrest in human HeLa cells assessed as accumulation in S phase at 0.24 uM by PI staining based flow cytometry analysis (reference value: 32.14 %); format: functional
HeLa [21] = assay: Induction of morphological change in human HeLa cells assessed as rounded cell morphology at 0.25 uM preincubated for 24 hrs followed by 7 mins of LED light irradiation and measured upto 48 hrs by microscopic analysis; format: functional, cell-based; settings: time min <=4327
[22] = Phototoxicity ratio of IC50 for cytotoxicity against human NHDF cells assessed as reduction in cell viability in dark to IC50 for phototoxicity against human NHDF cells upon LED light irradiation; format: toxicity, cell-based; settings: read-out: Ratio IC50
HeLa [23] = assay: Induction of morphological change in human HeLa cells assessed as reduction in adhesion at 0.25 uM preincubated for 24 hrs followed by 7 mins of LED light irradiation and measured upto 48 hrs by microscopic analysis; format: functional, cell-based; settings: time min <=4327
HeLa [24] = assay: Induction of cell cycle arrest in human HeLa cells assessed as accumulation in G0/G1 phase at 0.24 uM by PI staining based flow cytometry analysis (reference value: 67.03 %); format: functional
HeLa [25] = assay: Induction of cell cycle arrest in human HeLa cells assessed as accumulation in S phase at 1 uM by PI staining based flow cytometry analysis (reference value: 32.14 %); format: functional
HeLa [26] = assay: Induction of morphological change in human HeLa cells assessed as intracellular space dilation at 1 uM preincubated for 24 hrs followed by 7 mins of LED light irradiation and measured upto 48 hrs by microscopic analysis; format: functional, cell-based; settings: time min <=4327
HeLa [27] = assay: Induction of cell cycle arrest in human HeLa cells assessed as accumulation in G2/M phase at 0.24 uM with red light radiation for 7 mins by PI staining based flow cytometry analysis (reference value: 4.73 %); format: functional
HeLa [28] = assay: Induction of cell cycle arrest in human HeLa cells assessed as accumulation in G0/G1 phase at 1 uM by PI staining based flow cytometry analysis (reference value: 67.03 %); format: functional
[29] = Dark toxicity against human PC-3 cells assessed as reduction in cell viability incubated for 24 hrs by MTT assay; format: cell-based
[30] = Phototoxicity ratio of IC50 for cytotoxicity against human Caco-2 cells assessed as reduction in cell viability in dark to IC50 for phototoxicity against human Caco-2 cells upon LED light irradiation; format: toxicity, cell-based
HeLa [31] = assay: Induction of cell cycle arrest in human HeLa cells assessed as accumulation in G0/G1 phase at 0.24 uM with red light radiation for 7 mins by PI staining based flow cytometry analysis (reference value: 63.18 %); format: functional
[32] = Selectivity ratio of IC50 for phototoxicity against human NHDF cells upon LED light irradiation to IC50 for phototoxicity against human MCF7 cells upon LED light irradiation; format: toxicity, cell-based; settings: NHDF cells versus MCF7 cells, read-out: Ratio IC50
[33] = Selectivity ratio of IC50 for phototoxicity against human NHDF cells upon LED light irradiation to IC50 for phototoxicity against human HeLa cells upon LED light irradiation; format: toxicity, cell-based; settings: NHDF cells versus HeLa cells, read-out: Ratio IC50
HeLa [34] = assay: Induction of morphological change in human HeLa cells assessed as plasma membrane rupture at 1 uM preincubated for 24 hrs followed by 7 mins of LED light irradiation and measured upto 48 hrs by microscopic analysis; format: functional; settings: time min <=4327
[35] = Selectivity ratio of IC50 for phototoxicity against human NHDF cells upon LED light irradiation to IC50 for phototoxicity against human Caco-2 cells upon LED light irradiation; format: toxicity, cell-based; settings: NHDF cells versus Caco-2 cells, read-out: Ratio IC50
HeLa [36] = assay: Induction of cell cycle arrest in human HeLa cells assessed as accumulation in S phase at 0.24 uM with red light radiation for 7 mins by PI staining based flow cytometry analysis (reference value: 32.09 %); format: functional
[37] = Dark toxicity against human NHDF cells assessed as reduction in cell viability incubated for 24 hrs by MTT assay; format: cell-based
[38] = Phototoxicity against human HeLa cells assessed as reduction in cell viability preincubated for 24 hrs followed by 7 mins of LED light irradiation by MTT assay; format: toxicity, cell-based; settings: light or radiation study

Sequence of Albumin (P02768 whole entry): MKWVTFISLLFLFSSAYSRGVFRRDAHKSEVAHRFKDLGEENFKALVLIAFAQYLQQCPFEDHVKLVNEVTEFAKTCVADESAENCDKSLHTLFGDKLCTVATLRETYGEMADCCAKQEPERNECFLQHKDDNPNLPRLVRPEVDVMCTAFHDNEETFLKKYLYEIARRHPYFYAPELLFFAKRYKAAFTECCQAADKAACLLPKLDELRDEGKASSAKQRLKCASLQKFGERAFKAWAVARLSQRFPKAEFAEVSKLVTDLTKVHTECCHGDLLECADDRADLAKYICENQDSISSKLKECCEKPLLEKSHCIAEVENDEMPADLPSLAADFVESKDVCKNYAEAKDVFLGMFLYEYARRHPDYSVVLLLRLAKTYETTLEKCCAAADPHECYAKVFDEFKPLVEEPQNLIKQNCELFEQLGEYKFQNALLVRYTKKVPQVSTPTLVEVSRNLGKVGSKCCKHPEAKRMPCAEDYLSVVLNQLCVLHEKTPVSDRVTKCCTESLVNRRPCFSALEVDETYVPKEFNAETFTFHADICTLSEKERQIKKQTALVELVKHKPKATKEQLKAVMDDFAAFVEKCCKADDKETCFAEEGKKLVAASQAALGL

Question: Which IC50 at 24 h [1] does the source give for `CCN1/C(=C/C2=C(NCc3ccccn3)C(=C/C3=[N+](CC)c4ccc5ccccc5c4C3(C)C)/C2=O)C(C)(C)c2c1ccc1ccccc21.[I-]` here?
Answer: 263 nM

Question: And the IC50 at 24 h [2]?
Answer: 2180 nM

Question: What about the IC50 [3] of the same compound?
Answer: 87 nM

Question: And the IC50 [4]?
Answer: 92 nM

Question: And the Activity (HeLa [5])?
Answer: 2%

Question: What about the “Ratio IC50” value [6] of the same compound?
Answer: 9.8

Question: What about the Kb (Albumin) of the same compound?
Answer: 6.93 10^5/M

Question: And the Activity [7]?
Answer: 24 a.u.

Question: And the “Ratio IC50” value [8]?
Answer: 9.1

Question: And the Activity (HeLa [9])?
Answer: 4%

Question: And the Activity (HeLa [10])?
Answer: Active

Question: And the IC50 at 24 h [11]?
Answer: 1610 nM

Question: What about the Activity (HeLa [12]) of the same compound?
Answer: 68%

Question: And the Drug uptake [13]?
Answer: Active

Question: What about the “Ratio IC50” value [14] of the same compound?
Answer: 23.8

Question: And the Activity (HeLa [15])?
Answer: 4.98%

Question: And the IC50 at 24 h [16]?
Answer: 2020 nM

Question: What about the selectivity ratio [17] of the same compound?
Answer: 3.02

Question: And the IC50 [18]?
Answer: 165 nM

Question: What about the Drug uptake [19] of the same compound?
Answer: Not Active

Question: And the Activity (HeLa [20])?
Answer: 22.04%

Question: What about the Activity (HeLa [21]) of the same compound?
Answer: Active

Question: And the selectivity ratio [22]?
Answer: 8.1

Question: And the Activity (HeLa [23])?
Answer: Active

Question: What about the Activity (HeLa [24]) of the same compound?
Answer: 73.97%

Question: What about the Activity (HeLa [25]) of the same compound?
Answer: 26.68%

Question: And the Activity (HeLa [26])?
Answer: Active

Question: What about the Activity (HeLa [27]) of the same compound?
Answer: 15.95%

Question: And the Activity (HeLa [28])?
Answer: 68.34%

Question: What about the IC50 at 24 h [29] of the same compound?
Answer: 2070 nM

Question: What about the “Ratio IC50” value [30] of the same compound?
Answer: 21.9

Question: What about the Activity (HeLa [31]) of the same compound?
Answer: 67.14%

Question: What about the selectivity ratio [32] of the same compound?
Answer: 1.59

Question: And the selectivity ratio [33]?
Answer: 1.1

Question: What about the Activity (HeLa [34]) of the same compound?
Answer: Active

Question: And the selectivity ratio [35]?
Answer: 2.86

Question: What about the Activity (HeLa [36]) of the same compound?
Answer: 16.91%

Question: What about the IC50 at 24 h [37] of the same compound?
Answer: 2130 nM

Question: What about the IC50 [38] of the same compound?
Answer: 240 nM
